Measured values taken from ChEMBL document CHEMBL4393659, “Insights into the chemistry and therapeutic potential of furanones: A versatile pharmacophore” (Eur J Med Chem, 2019).
pIC50: −log10 of the molar value. Converted amounts (≈) assume the structure as drawn.

Tests used:
Plasmodium falciparum = test: Antimalarial activity against Plasmodium falciparum infected in human blood assessed as reduction in cell viability incubated for 72 hrs by Giemsa stain based assay; assay type: functional
Escherichia coli [1] = test: Antibacterial activity against Escherichia coli assessed as inhibition zone incubated for 24 hrs by disk diffusion method relative to control; assay type: functional
Rattus norvegicus [2] = test: Antiinflammatory activity in Wistar rat assessed as inhibition of carrageenan-induced edema measured upto 4 hrs; assay type: functional
[3] = Acute toxicity in Swiss albino mouse assessed as reduction in mortality of animal at 200 to 800 mg/kg , ip observed for 8 days; assay type: organism-based; details: in vivo
Rattus norvegicus [4] = test: Antiinflammatory activity in po dosed rat; assay type: functional
Rattus norvegicus [5] = test: Antiinflammatory activity in Wistar albino rat assessed as inhibition of carrageenan-induced paw edema at 20 mg/kg , po incubated for 30 mins followed by carrageenan addition and measured after 3 hrs by plethysmometry relative to control; assay type: functional
Mus musculus [6] = test: Analgesic activity in Swiss albino mouse assessed as inhibition of acetic acid induced writhing at 20 mg/kg , po incubated for 3 hrs followed by acetic acid administered and observed for 5 to 15 mins relative to control; assay type: functional
Aspergillus fumigatus = test: Antifungal activity against Aspergillus fumigatus assessed as reduction in fungal cell viability measured after 24 and 48 hrs by broth microdilution method; assay type: functional
[7] = target: GABA-A receptor; alpha-1/beta-2/gamma-2 (Homo sapiens) (UniProt P14867+P47870+P18507); test: Positive allosteric modulation of recombinant GABAA alpha1beta2gamma2 (unknown origin) expressed in Xenopus laevis oocytes assessed as increase GABA-stimulated current amplitude at 200 uM by electrophysiological two-electrode voltage clamp method; assay type: cell-based
Rattus norvegicus [8] = test: Antiinflammatory activity in Sprague-Dawley rat assessed as inhibition of carrageenan-induced paw edema at 3 mg/kg , po relative to control; assay type: functional
Rattus norvegicus [9] = organism: Rattus norvegicus; test: Antiarthritic activity in adjuvant-induced Sprague-Dawley rat; assay type: functional
Rattus norvegicus [10] = test: Antiinflammatory activity in Sprague-Dawley rat assessed as inhibition of carrageenan-induced paw edema at 3 mg/kg , po incubated for 1 hr followed by carrageenan addition and measured after 4 hrs relative to control; assay type: functional
[11] = Ulcerogenicity in Sprague-Dawley rat assessed as gastric lesions at 30 mg/kg , po measured after 4 hrs; assay type: toxicity, organism-based; details: in vivo
Escherichia coli [12] = test: Antibacterial activity against Escherichia coli; assay type: functional
Candida albicans = test: Antifungal activity against Candida albicans assessed as reduction in fungal cell viability incubated for 48 hrs by broth microdilution method; assay type: functional
Aspergillus niger = test: Antifungal activity against Aspergillus niger assessed as reduction in fungal cell viability incubated for 48 hrs by broth microdilution method; assay type: functional
Rhizopus arrhizus = test: Antifungal activity against Rhizopus oryzae assessed as reduction in fungal cell viability incubated for 48 hrs by broth microdilution method; assay type: functional
Escherichia coli [13] = test: Antibacterial activity against Escherichia coli ATCC 8739 assessed as reduction in bacterial cell viability incubated for 24 hrs by broth microdilution method; assay type: functional; details: ATCC 8739, 24 h
Staphylococcus aureus [14] = test: Antibacterial activity against Staphylococcus aureus ATCC 29737 assessed as reduction in bacterial cell viability incubated for 24 hrs by broth microdilution method; assay type: functional; details: ATCC 29737, 24 h
Pseudomonas aeruginosa = test: Antibacterial activity against Pseudomonas aeruginosa NCLM-2035 assessed as reduction in bacterial cell viability incubated for 24 hrs by broth microdilution method; assay type: functional; details: NCLM-2035, 24 h
Salmonella typhimurium = test: Inhibition of biofilm formation in Salmonella enterica subsp. enterica serovar Typhimurium 14028S incubated for 48 hrs by crystal violet staining based assay; assay type: functional, organism-based
Phospholipase A2 = Phospholipase A2 (Apis mellifera, UniProt P00630); test: Inhibition of bee venom phospholipase A2 preincubated for 1 hr followed by addition of phosphotidylcholine and 1-palmitoyl-2-(1-14C) palmitoyl further incubated for 10 mins and measured after 15 secs by scintillation counting method
[15] = target: Prostaglandin G/H synthase 2 (Homo sapiens, UniProt P35354); test: Inhibition of recombinant human COX2 expressed in baculovirus infected Sf9 cells
Mus musculus [16] = test: Anticonvulsant activity in ip dosed mouse assessed as reduction in PTZ-induced seizures pretreated for 30 mins followed by PTZ addition; assay type: functional
[17] = Ulcerogenicity in Wistar rat assessed as gastric lesions by measuring ulcer severity index at 60 mg/kg , po measured after 17 hrs relative to ibuprofen; assay type: toxicity, organism-based; details: in vivo
Liver = test: Antioxidant activity in Wistar rat liver microsomes assessed as inhibition of AAPH-induced MDA production at 100 mM incubated for 15 mins; assay type: functional; details: Microsome
Mus musculus [18] = test: Anticonvulsant activity in ip dosed CF-1 mouse assessed as protection against PTZ-induced seizures measured after 30 mins […]; assay type: functional
[19] = target: GABA-A receptor; anion channel; test: Displacement of [35S]TBPS from GABAA (unknown origin) incubated for 90 mins by scintillation counting method; assay type: protein-complex assay, Homo sapiens
Staphylococcus aureus [20] = test: Antibacterial activity against Staphylococcus aureus; assay type: functional

Chain of Prostaglandin G/H synthase 2 (P35354 whole entry): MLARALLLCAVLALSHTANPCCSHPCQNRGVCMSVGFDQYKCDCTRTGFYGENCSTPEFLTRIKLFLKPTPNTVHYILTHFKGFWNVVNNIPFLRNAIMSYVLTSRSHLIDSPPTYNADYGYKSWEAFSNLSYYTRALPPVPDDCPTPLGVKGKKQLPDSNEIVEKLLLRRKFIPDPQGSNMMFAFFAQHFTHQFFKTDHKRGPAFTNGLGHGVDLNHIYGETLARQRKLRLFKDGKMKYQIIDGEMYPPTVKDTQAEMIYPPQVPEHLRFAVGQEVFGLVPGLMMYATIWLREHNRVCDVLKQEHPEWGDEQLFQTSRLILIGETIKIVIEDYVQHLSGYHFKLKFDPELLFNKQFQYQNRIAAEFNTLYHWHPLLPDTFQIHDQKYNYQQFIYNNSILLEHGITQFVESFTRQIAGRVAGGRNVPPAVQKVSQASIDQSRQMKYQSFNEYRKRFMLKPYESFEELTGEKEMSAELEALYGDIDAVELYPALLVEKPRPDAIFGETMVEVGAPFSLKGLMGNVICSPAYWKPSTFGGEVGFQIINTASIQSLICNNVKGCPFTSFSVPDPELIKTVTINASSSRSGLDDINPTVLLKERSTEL
Chain of Phospholipase A2 (P00630 whole entry): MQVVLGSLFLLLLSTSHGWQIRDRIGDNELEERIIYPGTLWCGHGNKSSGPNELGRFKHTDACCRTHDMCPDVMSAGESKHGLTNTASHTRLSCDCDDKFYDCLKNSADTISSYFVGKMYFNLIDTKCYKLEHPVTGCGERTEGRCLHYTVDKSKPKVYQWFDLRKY

COc1cccc2cc(/C=C3/CC(c4ccc(C)cc4C)OC3=O)c(Cl)nc12 (configuration not stated)
MIC (Plasmodium falciparum): 0.5 to 0.72 µg/mL (≈ 1.27 to 1.83 µM)

CC1COc2c(N3CCN(C)CC3)c(F)cc3c(=O)c(C(=O)O)cn1c23 (configuration not stated) [OFLOXACIN]
inhibition zone (IZ) (Escherichia coli [1]): 24 mm

O=C1OC(c2ccc3ccccc3c2)=C/C1=C\c1cc2ccccc2nc1Cl
inhibition (INH) (Rattus norvegicus [2]): 56 - 63%

O=C1O[C@H]([C@@H](O)CO)C(O)=C1O [ASCORBIC ACID]
LD50 at 192 h [3]: > 800 mg/kg

CC1(O)OC(=O)C(c2ccc(Cl)cc2)=C1c1ccc(S(C)(=O)=O)cc1 (configuration not stated)
ED50 (Rattus norvegicus [4]): 1.4 mg/kg

COc1ccc(/C=C2\C=C(c3ccc4ccccc4c3)OC2=O)cc1
inhibition in vivo at 20 mg/kg (Rattus norvegicus [5]): 74.8 to 89.7%
inhibition in vivo at 20 mg/kg (Mus musculus [6]): 70 to 74%

C[C@@H]1[C@H](O)[C@@H](C)/C=C/C=C/C=C/C=C/C=C/C=C/C=C/[C@H](O[C@@H]2O[C@H](C)[C@@H](O)[C@H](N)[C@@H]2O)C[C@@H]2O[C@](O)(C[C@@H](O)C[C@@H](O)[C@H](O)CC[C@@H](O)C[C@@H](O)CC(=O)O[C@H]1C)C[C@H](O)[C@H]2C(=O)O [AMPHOTERICIN B]
MIC (Aspergillus fumigatus): 0.5 µg/mL (≈ 0.541 µM)

C=CCOC(=O)NC1COC(=O)C1(CCC)CCC (configuration not stated)
Activity [7]: 420%

O=C1OC(c2ccc(-c3ccccc3)cc2)=C/C1=C\c1cc2ccc([N+](=O)[O-])cc2nc1Cl
inhibition (INH) (Rattus norvegicus [2]): 56 - 63%

CC1(C)OC(c2ccc(S(C)(=O)=O)cc2)=C(c2cc(F)cc(F)c2)C1=O
inhibition in vivo at 3 mg/kg (Rattus norvegicus [8]): 34%
ED50 (Rattus norvegicus [9]): 0.03 mg/kg/day
inhibition in vivo at 3 mg/kg (Rattus norvegicus [10]): 34%
UI [11]: 1.8

CC1(O)OC(=O)C(c2ccccc2)=C1c1ccc(S(C)(=O)=O)cc1 (configuration not stated)
ED50 (Rattus norvegicus [4]): 1.5 mg/kg

O=C1C(Br)=C(c2ccccc2)O/C1=N\C12CC3CC(CC(C3)C1)C2
MIC (Escherichia coli [12]): 15.6 µg/mL (≈ 40.4 µM)

O=C1OC(c2ccc(Cl)cc2)=C/C1=C\c1ccc(Br)cc1
MIC (Candida albicans): 12.5 to 50 µg/mL (≈ 34.6 to 138 µM)
MIC (Aspergillus niger): 12.5 to 50 µg/mL (≈ 34.6 to 138 µM)
MIC (Rhizopus arrhizus): 12.5 to 50 µg/mL (≈ 34.6 to 138 µM)
MIC (Escherichia coli [13]): 12.5 to 50 µg/mL (≈ 34.6 to 138 µM)
MIC (Staphylococcus aureus [14]): 12.5 to 50 µg/mL (≈ 34.6 to 138 µM)
MIC (Pseudomonas aeruginosa): 12.5 to 50 µg/mL (≈ 34.6 to 138 µM)

O=C1OC(c2ccc3ccccc3c2)=C/C1=C\c1cc2ccc(Cl)cc2nc1Cl
inhibition (INH) (Rattus norvegicus [2]): 56 - 63%

COc1ccc(C2=C/C(=C/c3ccc(N(C)C)cc3)C(=O)O2)cc1
inhibition zone (IZ) (Escherichia coli [1]): 16 mm

O=C1OC(c2ccc3ccccc3c2)=C/C1=C\c1ccc([N+](=O)[O-])cc1
inhibition in vivo at 20 mg/kg (Rattus norvegicus [5]): 74.8 to 89.7%
inhibition in vivo at 20 mg/kg (Mus musculus [6]): 70 to 74%

O=C1C=C/C(=C/Br)O1
pIC50 (Salmonella typhimurium): 4.82

O=C1C=C(Br)/C(=C/Br)O1
pIC50 (Salmonella typhimurium): 5.00

COc1ccc(C2=C/C(=C/c3ccc(F)cc3)C(=O)O2)cc1
inhibition zone (IZ) (Escherichia coli [1]): 14 mm

CC(C)(C)C(=O)OC(CCCCCCCCCCCCC(OC(=O)C(C)(C)C)C1=CC(=O)OC1OC(=O)Nc1ccccc1)C1=CC(=O)OC1OC(=O)Nc1ccccc1 (configuration not stated)
pIC50 (Phospholipase A2): < 6.00

Cc1ccc2c(c1)C1=C(c3ccc(S(C)(=O)=O)cc3)C(=O)OC1CC2 (configuration not stated)
pIC50 [15]: 6.22 to 6.30

CCC1(CC)CC(CCOC(=O)c2ccc(C)cc2)OC1=O (configuration not stated)
ED50 (Mus musculus [16]): 89.9 to 285 mg/kg

O=C1C=C(c2ccc(Br)cc2)O/C1=N\C12CC3CC(CC(C3)C1)C2
MIC (Escherichia coli [12]): 31 µg/mL (≈ 80.3 µM)

COc1cccc2cc(/C=C3/CC(c4ccc(Cl)c(Cl)c4)OC3=O)c(Cl)nc12 (configuration not stated)
MIC (Plasmodium falciparum): 0.5 to 0.72 µg/mL (≈ 1.15 to 1.66 µM)

CC(C)Cc1ccc(C2=C/C(=C\c3ccccc3Cl)C(=O)O2)cc1
UI [17]: 0.2

Cc1c(C)c2c(c(C)c1O)CCC(C)(CC1OC[C@@H]([C@H]3OC(=O)C(O)=C3O)O1)O2 (some centres not stated)
inhibition (Liver): 100%

CC1(CC(F)(F)F)COC(=O)C1 (configuration not stated)
CD50 (Mus musculus [18]): 3 mg/kg
pIC50 [19]: 5.10

O=C1OC(c2ccc(Cl)cc2)=C/C1=C\c1ccc(F)cc1
MIC (Candida albicans): 12.5 to 50 µg/mL (≈ 41.6 to 166 µM)
MIC (Aspergillus niger): 12.5 to 50 µg/mL (≈ 41.6 to 166 µM)
MIC (Rhizopus arrhizus): 12.5 to 50 µg/mL (≈ 41.6 to 166 µM)
MIC (Escherichia coli [13]): 12.5 to 50 µg/mL (≈ 41.6 to 166 µM)
MIC (Staphylococcus aureus [14]): 12.5 to 50 µg/mL (≈ 41.6 to 166 µM)
MIC (Pseudomonas aeruginosa): 12.5 to 50 µg/mL (≈ 41.6 to 166 µM)

CC(C)(C)C(=O)OCC1C=C(c2ccc(Cl)c(Cl)c2)C(=O)O1 (configuration not stated)
MIC (Aspergillus fumigatus): 1.34 µg/mL (≈ 3.9 µM)

COC(=O)C(Cl)C1(Cl)OC(c2ccc(Cl)cc2)=C(Cl)C1=O (configuration not stated)
MIC (Escherichia coli [12]): 62.5 µg/mL (≈ 169 µM)
MIC (Staphylococcus aureus [20]): 15.6 µg/mL (≈ 42.2 µM)
